The results in this text go back to PubChem BioAssay AID258 (DTP/NCI, 2004).

Each structure is given as a SMILES string. Several values for one entry are separate records, joined by “and”; a condition that tells them apart may be missing. Equal values may be shown once. Toxic doses and inconclusive results are not listed.

For this experiment, the system named is CD2F1 mice, L1210 leukemia sc, survival T/C. The experiment in a line: NCI In Vivo Anticancer Drug Screen. Data for tumor model L1210 Leukemia (subcutaneous) in CD2F1 (CDF1) mice. Conditions: endpoint: median survival time, higher = longer survival. In a few lines: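 Mice with transplanted tumor dosed; survival/tumor size read; T/C vs vehicle controls.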
[1] abbreviates: dose: 2.5 mg/kg/injection, schedule: Q01DX009 (ip), vehicle: saline with Tween-80.
[2] abbreviates: dose: 40.0 mg/kg/injection, schedule: Q01DX009 (ip), vehicle: saline with Tween-80.
The mark [3] stands for this setting: dose: 60.0 mg/kg/injection, schedule: Q01DX009 (sc), vehicle: saline with Tween-80.

Regarding `CC(CN1CC(=O)NC(=O)C1)N1CC(=O)NC(=O)C1` (stereo not drawn), the T/C runs as follows: (dose: 1.25 mg/kg/injection, schedule: Q01DX009 (ip), vehicle: saline with Tween-80) 119 % of control; (dose: 1.88 mg/kg/injection, schedule: Q01DX009 (sc), vehicle: saline with Tween-80) 113 % of control; under setting [1], 114 % of control; (dose: 15.0 mg/kg/injection, schedule: Q01DX009 (ip), vehicle: saline with Tween-80) 159 % of control; (dose: 15.0 mg/kg/injection, schedule: Q01DX009 (sc), vehicle: saline with Tween-80) 178 % of control; (dose: 15.0 mg/kg/injection, schedule: Q01DX009 (sc), vehicle: saline) 124 % of control. Further, the T/C by setting is: (dose: 20.0 mg/kg/injection, schedule: Q01DX009 (sc), vehicle: saline with Tween-80) 156 % of control; (dose: 30.0 mg/kg/injection, schedule: Q01DX009 (ip), vehicle: saline with Tween-80) 178 % of control; (dose: 35.0 mg/kg/injection, schedule: Q01DX009 (sc), vehicle: saline with Tween-80) 191 % of control; under setting [2], 165 % of control; (dose: 40.0 mg/kg/injection, schedule: Q01DX009 (sc), vehicle: saline with Tween-80) 186 % of control; (dose: 45.0 mg/kg/injection, schedule: Q01DX009 (sc), vehicle: saline with Tween-80) 190 % of control and 192 % of control. Besides, the T/C runs as follows: (dose: 50.0 mg/kg/injection, schedule: Q01DX009 (sc), vehicle: saline with Tween-80) 195 % of control; under setting [3], 164 % of control; (dose: 90.0 mg/kg/injection, schedule: Q01DX009 (ip), vehicle: saline with Tween-80) 123 % of control; (dose: 100.0 mg/kg/injection, schedule: Q01DX009 (sc), vehicle: saline with Tween-80) 163 % of control; (dose: 108.0 mg/kg/injection, schedule: Q04DX003 (sc), vehicle: Klucel (hydroxypropylcellulose) (HPC)) 119 % of control and 122 % of control; (dose: 120.0 mg/kg/injection, schedule: Q01DX009 (ip), vehicle: saline with Tween-80) 158 % of control. Further, the T/C runs as follows: (dose: 120.0 mg/kg/injection, schedule: Q01DX009 (sc), vehicle: saline) 157 % of control; (dose: 180.0 mg/kg/injection, schedule: Q04DX003 (sc), vehicle: Klucel (hydroxypropylcellulose) (HPC)) 122 % of control; (dose: 240.0 mg/kg/injection, schedule: Q01DX009 (ip), vehicle: saline with Tween-80) 97 % of control; (dose: 240.0 mg/kg/injection, schedule: Q01DX009 (sc), vehicle: saline with Tween-80) 86 % of control; (dose: 300.0 mg/kg/injection, schedule: Q04DX003 (sc), vehicle: Klucel (hydroxypropylcellulose) (HPC)) 153 % of control; (dose: 833.0 mg/kg/injection, schedule: Q04DX003 (sc), vehicle: Klucel (hydroxypropylcellulose) (HPC)) 111 % of control and 112 % of control.

Regarding `O=S1(=O)CS(=O)(=O)OCCO1`, the T/C runs as follows: (dose: 25.0 mg/kg/injection, schedule: Q01DX009 (ip), vehicle: Klucel (hydroxypropylcellulose) (HPC)) 216 % of control; (dose: 50.0 mg/kg/injection, schedule: Q01DX009 (ip), vehicle: Klucel (hydroxypropylcellulose) (HPC)) 175 % of control.

Consider `O=NN(CCF)C(=O)NC1CCCCC1`, for which the T/C (dose: 1.85 mg/kg/injection, schedule: Q01DX Z (sc), vehicle: carboxymethylcellulose (CMC)) is 100 % of control; the T/C (dose: 3.75 mg/kg/injection, schedule: Q01DX Z (sc), vehicle: carboxymethylcellulose (CMC)) was 111 % of control; the T/C (dose: 7.5 mg/kg/injection, schedule: Q01DX Z (sc), vehicle: carboxymethylcellulose (CMC)) is 376 % of control; the T/C (dose: 15.0 mg/kg/injection, schedule: Q01DX Z (sc), vehicle: carboxymethylcellulose (CMC)) was 394 % of control; the T/C (dose: 30.0 mg/kg/injection, schedule: Q01DX Z (sc), vehicle: carboxymethylcellulose (CMC)) was 211 % of control.

For the compound `O=C(Nc1nncs1)c1cccs1`, the T/C is 99 % of control (dose: 50.0 mg/kg/injection, schedule: Q01DX009 (ip), vehicle: saline with Tween-80); 95 % of control (dose: 100.0 mg/kg/injection, schedule: Q01DX009 (ip), vehicle: saline with Tween-80); 100 % of control (dose: 200.0 mg/kg/injection, schedule: Q01DX009 (ip), vehicle: saline with Tween-80); 100 % of control (dose: 400.0 mg/kg/injection, schedule: Q01DX009 (ip), vehicle: saline with Tween-80); 121 % of control (dose: 800.0 mg/kg/injection, schedule: Q01DX009 (ip), vehicle: saline with Tween-80).

Regarding `O=c1[nH]c(=O)n(C2CC(O)C(CO)O2)cc1C(F)(F)F` (stereo not drawn), the T/C by setting is: under setting [1], 106 % of control; (dose: 5.0 mg/kg/injection, schedule: Q01DX009 (ip), vehicle: saline with Tween-80) 114 % of control; (dose: 10.0 mg/kg/injection, schedule: Q01DX009 (ip), vehicle: saline with Tween-80) 117 % of control and 121 % of control; (dose: 10.0 mg/kg/injection, schedule: Q01DX009 (sc), vehicle: saline) 111 % of control and 122 % of control; (dose: 13.3 mg/kg/injection, schedule: Q01DX009 (sc), vehicle: saline with Tween-80) 122 % of control; (dose: 20.0 mg/kg/injection, schedule: Q01DX009 (sc), vehicle: saline) 111 % of control. The T/C was 153 % of control under setting [2]; 118 % of control and 123 % of control (dose: 40.0 mg/kg/injection, schedule: Q01DX009 (sc), vehicle: saline); 156 % of control (dose: 60.0 mg/kg/injection, schedule: Q01DX009 (ip), vehicle: saline with Tween-80); 152 % of control under setting [3]; 150 % of control (dose: 80.0 mg/kg/injection, schedule: Q01DX009 (ip), vehicle: saline with Tween-80); 154 % of control (dose: 80.0 mg/kg/injection, schedule: Q01DX009 (sc), vehicle: saline with Tween-80). The T/C was 167 % of control (dose: 90.0 mg/kg/injection, schedule: Q01DX009 (sc), vehicle: saline with Tween-80); 150 % of control (dose: 105.0 mg/kg/injection, schedule: Q01DX009 (sc), vehicle: saline with Tween-80); 158 % of control and 162 % of control (dose: 120.0 mg/kg/injection, schedule: Q01DX009 (sc), vehicle: saline with Tween-80); 162 % of control (dose: 135.0 mg/kg/injection, schedule: Q01DX009 (sc), vehicle: saline with Tween-80); 121 % of control (dose: 160.0 mg/kg/injection, schedule: Q01DX009 (ip), vehicle: saline with Tween-80); 120 % of control (dose: 160.0 mg/kg/injection, schedule: Q01DX009 (sc), vehicle: saline). In addition, the T/C (dose: 180.0 mg/kg/injection, schedule: Q01DX009 (sc), vehicle: saline with Tween-80) was 120 % of control; the T/C (dose: 180.0 mg/kg/injection, schedule: Q01DX009 (sc), vehicle: saline) is 161 % of control; the T/C (dose: 211.2 mg/kg/injection, schedule: Q01DX009 (sc), vehicle: saline with Tween-80) was 151 % of control; the T/C (dose: 240.0 mg/kg/injection, schedule: Q01DX009 (sc), vehicle: saline) was 158 % of control; the T/C (dose: 320.0 mg/kg/injection, schedule: Q01DX009 (ip), vehicle: saline with Tween-80) was 108 % of control; the T/C (dose: 320.0 mg/kg/injection, schedule: Q01DX009 (sc), vehicle: saline with Tween-80) was 156 % of control. Moreover, the T/C by setting is: (dose: 320.0 mg/kg/injection, schedule: Q01DX009 (sc), vehicle: saline) 119 % of control; (dose: 960.0 mg/kg/injection, schedule: Q01DX009 (sc), vehicle: saline with Tween-80) 122 % of control.

In the case of `COc1cccc2c1C(=O)c1c(O)c3c(c(O)c1C2=O)CC(O)(C(=O)CO)CC3OC1CC(N)C(O)C(C)O1` (stereo not drawn), the T/C was 104 % of control (dose: 2.9 mg/kg/injection, schedule: Q01DX009 (ip), vehicle: saline); 105 % of control (dose: 5.8 mg/kg/injection, schedule: Q01DX009 (ip), vehicle: saline); 106 % of control (dose: 11.7 mg/kg/injection, schedule: Q01DX009 (ip), vehicle: saline); 115 % of control (dose: 23.4 mg/kg/injection, schedule: Q01DX009 (ip), vehicle: saline); 111 % of control (dose: 46.8 mg/kg/injection, schedule: Q01DX009 (ip), vehicle: saline).

For the compound `CCN(CC)c1ccc(/C=C/c2ccnc3ccccc23)cc1`, the T/C (dose: 39.0 mg/kg/injection, schedule: Q01DX Z (sc), vehicle: water) is 100 % of control; the T/C (dose: 65.0 mg/kg/injection, schedule: Q01DX Z (sc), vehicle: water) was 100 % of control; the T/C (dose: 108.0 mg/kg/injection, schedule: Q01DX Z (sc), vehicle: water) is 100 % of control; the T/C (dose: 180.0 mg/kg/injection, schedule: Q01DX Z (sc), vehicle: water) is 100 % of control; the T/C (dose: 300.0 mg/kg/injection, schedule: Q01DX Z (sc), vehicle: water) is 100 % of control; the T/C (dose: 500.0 mg/kg/injection, schedule: Q01DX Z (sc), vehicle: water) is 100 % of control.
